Literature values as cited in US10196371B2, “Compounds for the treatment of HPV-induced carcinoma” (Åbo Akademi, priority 2014, dated 2019).

Tests used:
[1] = test system: HPV16 positive cervical cancer cells
[2] = test system: E6 and E7

C=C1C(=O)OC2/C=C(/C)CC/C=C(\C(=O)O)CC/C=C(\C)CCC12 (centres unmarked) [anisomelic acid]
efficiency in inducing apoptosis [1]: good efficiency | protein level expression of E6 and E7 [2]: inhibits
